Laboratory results as given in patent US20070059785A1, “Biomarkers in cancer” (SMITHKLINE BEECHAM CORPORATION, priority 2003, published 2007).
Where two headings read alike, the source gives them in different places.

Legend:
[1] = target: T1, erbB2 (Homo sapiens, UniProt P04626); test: Tumor xenografts, activated and total erbB2 by quantitative IHC; format: in vivo, mice; conditions: HN5 and BT474 xenografts, 200 mg/kg oral once daily
[2] = system: solid tumors; test: Open-label clinical study, clinical response (RECIST); format: in vivo, human
[3] = system: Hb4a cells; test: Hb4a cell growth, viable cell count by trypan blue exclusion; format: cell-based; conditions: Homo sapiens, 72 h, serum-free, three independent experiments, read-out: inhibition of cell growth compared with vehicle treated controls
Description: Exponentially growing Hb4a cells were cultured in 35 mm petri dishes with serum-free medium containing 1.5% BSA. […] Viable cells were counted after 72 h using trypan blue exclusion.

[4] = system: HN5 cells; test: Apoptosis and growth of HN5 cells; format: cell-based, human; conditions: data not shown
[5] = target: T1, erbB2; test: BT474 tumor xenograft, p-Tyr/ErbB-2 and total ErbB-2 by Western blot; format: in vivo, C.B-17 SCID mice; conditions: 100 mg/kg
Description: (§1) The tumor implant was removed after the final treatment dose. Activated receptor (p-Tyr/ErbB-2) was assessed by IP Western blot and total ErbB-2 steady state protein (ErbB-2), total Erk1/2 and activated Erk1/2 (p-Erk1/2) were assessed by Western blot loading equal amounts of protein from tumor biopsies.
Cell extracts were prepared by homogenization as described for HN5 xenografts.
as §1, with “BT474” for “The”, “xenografts (subcutaneous) were established as described in Materials and Methods. […] Controls were treated with vehicle alone. […]” for “implant was removed after the final treatment dose.”

[6] = system: p-ERK; test: Antibody staining of p-ERK localization in MCF7/erbB2 cells; format: cell-based, human; conditions: 10 uM, results not shown
[7] = system: HN5 cells; conditions: Rusnak et al.; cited from earlier work
[8] = system: Heregulin; test: Clinical tumor biopsies, heregulin by IHC; conditions: patient 425, inflammatory breast cancer, 1200 mg/d ditosylate salt, day 21 (day 0: 5)
Description: Erk1/2 (1:1200), erbB3 (1:10), heregulin (1:25), and TGFα (1:20) were also immunostained using the BenchMark™ with I-VIEW detection chemistry.
“Heregulin”, a ligand that stimulates erbB3 (HER3) and HER4, was measured by immunohistochemistry and reported in OD.

[9] = system: AKT; test: HN5 tumor xenograft, p-AKT and total AKT by Western blot; format: in vivo, CD-1 nude mice
Description: (§2) Total Erk1/2, total AKT, activated Erk1/2 (p-Erk1/2), and activated AKT (p-AKT) were assessed by Western blot loading equal amounts of protein from tumor biopsies.
(§3) HN5 cells were grown in DMEM supplemented with 10% fetal bovine serum, sodium pyruvate and L-glutamine at 37° C. in a 95/5% air/CO2 atmosphere. […] Cells (2×10^6/mouse) in 0.2 ml were injected into the right flank of CD-1 nude mice. Female CD-1 nude mice were acquired from Charles River Laboratories. Mice were maintained in filter-topped cages in an aseptic environment with laminar flow filtered ventilation. […] Tumors were biopsied pre-treatment and 4 hours after the last dose. All animal surgery was conducted under aseptic conditions. For the initial biopsy, mice were anesthetized with isofluorane inhalation. The skin over the tumor was disinfected with iodine. A small hemostat was used to tease away the skin from the tumor, and scissors were used to make a 1 cm incision over the tumor. A scalpel and forceps were used to remove approximately 100 mg of tumor. The tumor was then frozen in liquid nitrogen. Wound clips were used to close the incision. The anesthetized mice were kept warm until they recovered mobility, usually less than 1-2 minutes. For the terminal biopsy, mice were euthanized with CO2 inhalation, and the remainder of the tumor excised. HN5 tumors were placed on dry ice in vials containing cold isopentane, and stored at −80 C prior to study. BT474 tumor samples were fixed for 2-3 hours in phosphatase inhibitor consisting of sodium fluoride and sodium pervanadate in 10% neutral buffered formalin. Following fixative treatment, BT474 samples were washed in water and stored in 70% ethanol prior to study. Cell extracts were prepared by homogenization in RIPA buffer at 4° C.
as §2

[10] = system: AKT; test: Western blot of p-AKT in BT474 cells; format: cell-based, human; conditions: BT474, 1 μM, 24 h serum-free; not reversed by EGF
Description: (§4) The erbB2 overexpressing human breast adenocarcinoma cell line, BT474, was obtained from the American Type Culture Collection (Rockville, M, USA). […] The EGFR overexpressing LICR-LON-HN5 head and neck carcinoma cell line, HN5, was kindly provided by Helmout Modjtahedi at the Institute of Cancer Research, Surrey, U.K.
(§5) For IP Western blots, equivalent amounts of protein were precleared with Protein G Plus/Protein A agarose overnight at 4° C. Precleared lysates were then incubated overnight at 4° C. with specific antibodies. Immune complexes were precipitated with Protein G Plus/Protein A agarose beads, washed in RIPA buffer and then boiled in sample loading buffer. Steady state levels of total Erk1/2 and activated Erk1/2 (p-Erk) as well as total AKT protein and activated AKT (p-AKT) protein were assessed by Western blot. […] Proteins were transferred to Immobilon-P or nitrocellulose membranes. Efficiency and equal loading of proteins was evaluated by Ponceau S staining. Membranes were blocked for 1 hr in TBS (25 mM Tris-HCl, pH 7.4, 150 mM NaCl, 2.7 mM KCl) containing 4% (w/v) lowfat milk or 3% BSA (w/v). Membranes were then probed with specific antibodies recognizing target proteins. Proteins were visualized with the SUPERSIGNAL® West Femto Maximum sensitivity substrate kit (Pierce).
BT474 is an erbB2 overexpressing breast carcinoma line that also expresses EGFR, albeit at lower levels. […]

[11] = target: T1, erbB2; test: IP Western blot of p-Tyr/erbB2 in BT474 cells, with or without EGF; format: cell-based; parameters: endogenous in cells; conditions: BT474, 1 μM, 24 h serum-free; not reversed by EGF
Description: as §4
Cell cultures were maintained in a humidified atmosphere of 5% CO2 at 37° C.
Protein concentrations were determined using a modification of the Bradford method (Bio-Rad Laboratory).
as §5, with “Proteins were visualized with the SUPERSIGNAL® West Femto Maximum sensitivity substrate kit (Pierce).” left out

[12] = system: S1 cells; test: Cell cycle analysis (propidium iodide, flow cytometry), apoptosis of S1 cells; conditions: 5 μM, 72 h
Description: The percentage of cells in G1, S phase, and G2/M are indicated. The sub-G1 peak represents the apoptotic fraction.
Cells were harvested and fixed with 70% ethanol in PBS. Cell pellets were then resuspended in 0.5 ml PBS containing propidium iodide (50 μg/ml) and DNase-free RNase (100 μg/ml). Cell cycle analysis was performed using a BD Flow Cytometer (Becton Dickinson, San Jose, Calif., USA).
After 72 h, cell cycle analysis was performed using propidium iodide staining and flow cytometry as described in Materials and methods.

[13] = system: Erk1/2; test: HN5 tumor xenograft, p-Erk1/2 and total Erk1/2 by Western blot; format: in vivo, CD-1 nude mice
Description: as §2, §3, §2

[14] = patients with >70% decrease in pERK index

T1 sequence (P04626 23-1255): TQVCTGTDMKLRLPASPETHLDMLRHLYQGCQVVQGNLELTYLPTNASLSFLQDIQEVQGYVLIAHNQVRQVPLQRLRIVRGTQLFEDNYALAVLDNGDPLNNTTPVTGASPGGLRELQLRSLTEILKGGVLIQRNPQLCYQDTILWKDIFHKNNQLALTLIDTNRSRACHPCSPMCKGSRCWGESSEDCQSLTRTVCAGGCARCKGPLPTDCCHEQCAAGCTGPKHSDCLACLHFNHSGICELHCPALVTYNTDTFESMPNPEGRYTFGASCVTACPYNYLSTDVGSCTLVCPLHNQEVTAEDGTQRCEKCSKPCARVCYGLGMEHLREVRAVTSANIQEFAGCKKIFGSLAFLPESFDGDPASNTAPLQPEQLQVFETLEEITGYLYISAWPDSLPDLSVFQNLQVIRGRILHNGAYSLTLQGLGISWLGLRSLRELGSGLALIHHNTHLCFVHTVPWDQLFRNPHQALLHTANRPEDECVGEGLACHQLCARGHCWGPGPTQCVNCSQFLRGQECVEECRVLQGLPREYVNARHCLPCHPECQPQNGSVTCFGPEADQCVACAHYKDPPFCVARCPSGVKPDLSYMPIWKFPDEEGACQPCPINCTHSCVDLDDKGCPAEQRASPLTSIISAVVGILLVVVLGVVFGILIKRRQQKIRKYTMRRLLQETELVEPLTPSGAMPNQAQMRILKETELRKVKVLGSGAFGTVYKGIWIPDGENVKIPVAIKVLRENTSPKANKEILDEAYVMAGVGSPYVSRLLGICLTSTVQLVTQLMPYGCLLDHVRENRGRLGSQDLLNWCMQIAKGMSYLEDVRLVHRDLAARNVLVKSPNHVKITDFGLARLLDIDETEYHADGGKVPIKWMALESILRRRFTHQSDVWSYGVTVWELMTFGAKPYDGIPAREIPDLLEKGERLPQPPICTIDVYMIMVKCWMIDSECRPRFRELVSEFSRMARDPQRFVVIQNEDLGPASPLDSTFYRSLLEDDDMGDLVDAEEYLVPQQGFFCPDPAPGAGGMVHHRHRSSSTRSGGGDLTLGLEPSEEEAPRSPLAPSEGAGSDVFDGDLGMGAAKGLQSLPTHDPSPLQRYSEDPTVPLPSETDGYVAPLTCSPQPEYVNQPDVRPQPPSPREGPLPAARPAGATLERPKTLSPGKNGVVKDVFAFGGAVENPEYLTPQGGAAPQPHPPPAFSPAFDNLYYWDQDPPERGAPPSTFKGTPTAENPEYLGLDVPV

CS(=O)(=O)CCNCc1ccc(-c2ccc3ncnc(Nc4ccc(OCc5cccc(F)c5)c(Cl)c4)c3c2)o1 [GW572016, N-{3-Chloro-4-[(3-fluorobenzyl)oxy]phenyl}-6-[5-({[2-(methylsulfonyl)ethyl]amino}methyl)-2-furyl]-4-quinazolinamine]
erbB2 total protein [1]: neither EGFR nor erbB2 total protein was affected
activated erbB2 ([1]; data not shown): inhibition
metastatic subcutaneous nodules ([2]; patient 361, metastatic breast cancer, 1200 mg/day, Day 21): almost all of their metastatic subcutaneous nodules had completely regressed
metastatic lymph node that was sequentially biopsied ([2]; patient 364, 1600 mg/day, Day 21): reduced in size
sensitivity of the patient's tumor to treatment ([2]; patient 425, inflammatory breast cancer, 1200 mg once per day): very sensitive
Partial Response at eight weeks [2, 14]: Partial Response: 2/5
Progression at eight weeks [2, 14]: one and Progression: 1/5
Stable Disease at eight weeks [2, 14]: Stable Disease: 2/5
Partial Response at eight weeks ([2]; patients with no decrease or increase in pERK index): Partial Response: 0/3
inhibition at 2.5 µM [3]: 50%
apoptosis [4]: significant apoptosis was not seen
cell growth [4]: growth arrest
total erbB2 steady state protein levels [5]: without effects
intensity of staining for p-ERK in the nucleus vs control cells [6]: less
apoptosis [7]: increased only slightly
Heregulin [8]: 8 OD
effect on p-AKT ([9]; 10 mg/kg, data not shown): little effect
p-AKT in tumors ([9]; 30 mg/kg/dose): inhibited
total steady state AKT protein levels ([9]; 30 mg/kg/dose): without affecting
p-AKT [10]: completely inhibited
baseline levels of p-Tyr/erbB2 [11]: inhibited
increase in percentage of apoptotic cells vs vehicle [12]: 23 fold
percentage of cells in S phase and G2/M [12]: concomitant reduction
percentage of apoptotic cells (sub-G1 peak) ([12]; vehicle control 2%): 46%
effect on p-Erk1/2 ([13]; 10 mg/kg, data not shown): little effect
p-Erk1/2 in tumors ([13]; 30 mg/kg/dose): inhibited
total steady state Erk1/2 protein levels ([13]; 30 mg/kg/dose): without affecting
